Test results published in PMC10026764, “Overcoming the imatinib-resistant BCR-ABL mutants with new ureidobenzothiazole chemotypes endowed with potent and broad-spectrum anticancer activity” (Journal of Enzyme Inhibition and Medicinal Chemistry, 2023).
Where “and” joins values, the source holds several entries; their conditions need not be identical. Identical values can stand only once. Like-named read-outs stand apart in the source and are kept apart here.

Key:
NCI-H226 = assay: NCI-60 five-dose SRB assay; assay type: cell-based; details: Homo sapiens; NCI-H226, non-small cell lung cancer
PC-3 [1] = assay: NCI-60 five-dose SRB assay; assay type: cell-based; details: Homo sapiens; PC-3, prostate cancer
SK-OV-3 = assay: NCI-60 five-dose SRB assay; assay type: cell-based; details: Homo sapiens; SK-OV-3, ovarian cancer
A549/ATCC = assay: NCI-60 five-dose SRB assay; assay type: cell-based; details: Homo sapiens, non-small cell lung cancer
T-47D [2] = assay: NCI-60 five-dose SRB assay; assay type: cell-based; details: Homo sapiens, T47D, breast cancer
CCRF-CEM = assay: NCI-60 five-dose SRB assay; assay type: cell-based; details: Homo sapiens, leukaemia
OVCAR-3 = assay: NCI-60 five-dose SRB assay; assay type: cell-based, human; details: OVCAR-3, ovarian cancer; for GI50 / LC50 (concentration killing 50% of cells): Homo sapiens
MDA-MB-468 = assay: NCI-60 five-dose SRB assay; assay type: cell-based; details: Homo sapiens; MDA-MB-468, breast cancer
NCI-H522 = assay: NCI-60 five-dose SRB assay; assay type: cell-based, human
SR = assay: NCI-60 five-dose SRB assay; assay type: cell-based, human; details: leukaemia
UO-31 = assay: NCI-60 five-dose SRB assay; assay type: cell-based, human; details: UO-31, renal cancer; for GI50 / CC50: Homo sapiens; for CC50: read-out: LC50 (the source's name)
COLO 205 [3] = assay: NCI-60 five-dose SRB assay; assay type: cell-based; details: Homo sapiens; COLO 205, colon cancer
786-0 [4] = assay: NCI-60 five-dose SRB assay; assay type: cell-based; details: Homo sapiens; 786-0, renal cancer
UACC-257 = assay: NCI-60 five-dose SRB assay; assay type: cell-based; details: Homo sapiens; UACC-257, melanoma
BCR-ABL^WT = BCR-ABL^WT (Homo sapiens, UniProt P00519); assay: In vitro kinase screening (RBC), BCR-ABL^WT; assay type: biochemical; details: 10-dose IC50 mode, 3-fold serial dilution, 10 μM ATP
IGROV1 [5] = assay: NCI-60 five-dose SRB assay; assay type: cell-based; details: Homo sapiens, IGROV-1; IGROV1, ovarian cancer
SW-620 = assay: NCI-60 five-dose SRB assay; assay type: cell-based; details: Homo sapiens; SW-620, colon cancer
MDA-MB-435 = assay: NCI-60 five-dose SRB assay; assay type: cell-based; details: Homo sapiens; MDA-MB-435, melanoma
HCC-2998 = assay: NCI-60 five-dose SRB assay; assay type: cell-based; details: Homo sapiens; HCC-2998, colon cancer
SK-MEL-5 = assay: cells; assay type: cell-based; details: SK-MEL-5, melanoma; for GI50 / LC50 (50% lethal concentration): Homo sapiens
CAKI-1 = assay: NCI-60 five-dose SRB assay; assay type: cell-based; details: Homo sapiens; CAKI-1, renal cancer
HCT-116 = assay: NCI-60 five-dose SRB assay; assay type: cell-based; details: Homo sapiens; HCT-116, colon cancer
A498 = assay: NCI-60 five-dose SRB assay; assay type: cell-based; details: Homo sapiens; A498, renal cancer
SK-MEL-28 = assay: NCI-60 five-dose SRB assay; assay type: cell-based; details: Homo sapiens; SK-MEL-28, melanoma
MCF7 = assay: NCI-60 five-dose SRB assay; assay type: cell-based, human; details: MCF7, breast cancer; for GI50 / CC50: Homo sapiens; for CC50: read-out: LC50 (the source's name)
RPMI-8226 = assay: NCI-60 five-dose SRB assay; assay type: cell-based; details: Homo sapiens; RPMI-8226, leukaemia
SF-268 = assay: NCI-60 five-dose SRB assay; assay type: cell-based; details: Homo sapiens; SF-268, CNS cancer
DU-145 [6] = assay: NCI-60 five-dose SRB assay; assay type: cell-based, human; details: DU-145, prostate cancer; for GI50 / CC50: Homo sapiens; for CC50: read-out: LC50 (the source's name)
M14 = assay: NCI-60 five-dose SRB assay; assay type: cell-based, human; details: M14, melanoma; for GI50 / LC50 (concentration killing 50% of cells): Homo sapiens
KM12 = assay: NCI-60 five-dose SRB assay; assay type: cell-based; details: Homo sapiens; KM12, colon cancer
HL-60(TB) = assay: NCI-60 five-dose SRB assay; assay type: cell-based; details: Homo sapiens, leukaemia
DU-145 [7] = tested on: DU-145; design: method as in earlier work; details: imatinib mesylate NSC 743414, NCI data; cited from earlier work
786-0 [8] = tested on: 786-0; design: method as in earlier work; details: imatinib mesylate NSC 743414, NCI data; cited from earlier work
MALME-3M = tested on: MALME-3M; design: method as in earlier work; details: imatinib mesylate NSC 743414, NCI data; cited from earlier work
IGROV1 [9] = tested on: IGROV1; design: method as in earlier work; details: imatinib mesylate NSC 743414, NCI data; cited from earlier work
HT29 = tested on: HT29; design: method as in earlier work; details: imatinib mesylate NSC 743414, NCI data; cited from earlier work
T-47D [10] = tested on: T-47D; design: method as in earlier work; details: imatinib mesylate NSC 743414, NCI data; cited from earlier work
COLO 205 [11] = tested on: COLO 205; design: method as in earlier work; details: imatinib mesylate NSC 743414, NCI data; cited from earlier work
UACC-62 = tested on: UACC-62; design: method as in earlier work; details: imatinib mesylate NSC 743414, NCI data; cited from earlier work
ACHN = tested on: ACHN; design: method as in earlier work; details: imatinib mesylate NSC 743414, NCI data; cited from earlier work
PC-3 [12] = tested on: PC-3; design: method as in earlier work; details: imatinib mesylate NSC 743414, NCI data; cited from earlier work
ABL^H396P = ABL^H396P (Homo sapiens, UniProt P00519, H396P); assay: In vitro enzymatic activity, imatinib-resistant mutant panel; assay type: biochemical
[13] = Homo sapiens, NCI-H522, NCI-H522, non-small cell lung cancer

Work on COc1ccccc1-c1ccc2nc(NC(=O)Nc3cc(C(F)(F)F)cc(C(F)(F)F)c3)sc2c1 [Compound 2e] yielded a GI50 (NCI-H226) of 2160 nM, a GI50 (PC-3 [1]) of 1490 nM and a GI50 (SK-OV-3) of 2920 nM. For the same molecule, the GI50 (A549/ATCC) was 3190 nM, the GI50 (T-47D [2]) was 2160 nM and the GI50 (CCRF-CEM) was 2430 nM. The GI50 (OVCAR-3) was 1580 nM, the LC50 (concentration killing 50% of cells) (OVCAR-3) was 16.7 µM and the TGI (OVCAR-3) was 4.58 µM. For the same molecule, the GI50 (MDA-MB-468) was 1520 nM, the GI50 (NCI-H522; [13]) was 1760 nM and the GI50 (SR; Homo sapiens) was ~1700 nM. It also gave a GI50 (SR) of 1760 nM, a GI50 (UO-31) of 1790 nM and a CC50 (UO-31) of 9.29 µM. It also gave a TGI (UO-31) of 4.07 µM, a GI50 (COLO 205 [3]) of 1650 nM and a GI50 (786-0 [4]) of 1440 nM. For the same molecule, the GI50 (UACC-257) was 2310 nM, the IC50 (BCR-ABL^WT) was 4090 nM and the GI50 (IGROV1 [5]) was 2830 nM. For the same molecule, the GI50 (SW-620) was 3040 nM, the GI50 (MDA-MB-435) was 2270 nM and the GI50 (HCC-2998) was 2650 nM. For the same molecule, the GI50 (SK-MEL-5) was 1570 nM, the LC50 (50% lethal concentration) (SK-MEL-5) was 5.64 µM and the TGI (SK-MEL-5) was 2.98 µM. It also gave a GI50 (CAKI-1) of 2330 nM, a GI50 (HCT-116) of 1070 nM and a GI50 (A498) of 1640 nM. It also gave a GI50 (SK-MEL-28) of 2510 nM, a GI50 (MCF7) of 2280 nM and a CC50 (MCF7) of 46.2 µM. The TGI (MCF7) was 10.9 µM, the GI50 (RPMI-8226) was 1630 nM and the GI50 (SF-268) was 2860 nM. It also gave a TGI (DU-145 [6]) of 14.9 µM, a GI50 (DU-145 [6]) of 4000 nM and a CC50 (DU-145 [6]) of 42.4 µM. For the same molecule, the GI50 (M14) was 1540 nM, the LC50 (concentration killing 50% of cells) (M14) was 6.73 µM and the TGI (M14) was 3.22 µM. The GI50 (KM12) was 2070 nM and the GI50 (HL-60(TB)) was 2010 nM.
For Cc1ccc(NC(=O)c2ccc(CN3CCN(C)CC3)cc2)cc1Nc1nccc(-c2cccnc2)n1 [Imatinib], the GI50 (DU-145 [7]) is given as 18.8 µM, the GI50 (786-0 [8]) is given as 16 µM and the GI50 (MALME-3M) is given as 16.3 µM. The GI50 (IGROV1 [9]) was 21.2 µM, the GI50 (HT29) was 3.97 µM and the GI50 (T-47D [10]) was 19.9 µM. The GI50 (COLO 205 [11]) was 17.6 µM, the GI50 (UACC-62) was 19 µM and the GI50 (ACHN) was 25.2 µM. For the same molecule, the GI50 (PC-3 [12]) was 21.4 µM.
CCN1CCN(c2ccc(NC(=O)Nc3nc4ccc(-c5ccccc5OC)cc4s3)cc2)CC1 [Compound 2b] gave a GI50 (NCI-H226) of 2090 nM, a GI50 (PC-3 [1]) of 1790 nM and a GI50 (SK-OV-3) of 1790 nM. The GI50 (A549/ATCC) was 1980 nM, the GI50 (T-47D [2]) was 1580 nM and the GI50 (CCRF-CEM) was 1810 nM. For the same molecule, the GI50 (OVCAR-3) was 1640 nM, the LC50 (concentration killing 50% of cells) (OVCAR-3) was 5.9 µM and the TGI (OVCAR-3) was 3.11 µM. For the same molecule, the GI50 (MDA-MB-468) was 2170 nM, the GI50 (NCI-H522; [13]) was ~1760 nM and the GI50 (NCI-H522; NCI-H522, non-small cell lung cancer) was 1750 nM. For the same molecule, the GI50 (SR; Homo sapiens) was ~1700 nM, the GI50 (SR) was 1650 nM and the GI50 (UO-31) was 1520 nM. The CC50 (UO-31) was 5.63 µM, the TGI (UO-31) was 2.92 µM and the GI50 (COLO 205 [3]) was 1970 nM. For the same molecule, the GI50 (786-0 [4]) was 1800 nM, the GI50 (UACC-257) was 2110 nM and the IC50 (BCR-ABL^WT) was 0.7 nM and 0.701 nM. For the same molecule, the GI50 (IGROV1 [5]) was 1870 nM, the IC50 (ABL^H396P) was < 1 nM and the GI50 (SW-620) was 1940 nM. It also gave a GI50 (MDA-MB-435) of 1710 nM, a GI50 (HCC-2998) of 1830 nM and a GI50 (SK-MEL-5) of 1730 nM. The LC50 (50% lethal concentration) (SK-MEL-5) was 5.63 µM, the TGI (SK-MEL-5) was 3.12 µM and the GI50 (HCT-116) was 1580 nM. It also gave a GI50 (A498) of 1800 nM, a GI50 (SK-MEL-28) of 1760 nM and a GI50 (MCF7) of 1310 nM. For the same molecule, the CC50 (MCF7) was 6.25 µM, the TGI (MCF7) was 2.86 µM and the GI50 (RPMI-8226) was 2060 nM. For the same molecule, the GI50 (SF-268) was 1870 nM, the TGI (DU-145 [6]) was 3.26 µM and the GI50 (DU-145 [6]) was 1740 nM. It also gave a CC50 (DU-145 [6]) of 6.08 µM, a GI50 (M14) of 1620 nM and an LC50 (concentration killing 50% of cells) (M14) of 5.66 µM. The TGI (M14) was 3.03 µM, the GI50 (KM12) was 1750 nM and the GI50 (HL-60(TB)) was 1730 nM.
